Usually IC50 stands for the concentration that inhibits the measured activity by half.

Assay [1] addresses T1, human α2A‐adrenoceptor (Homo sapiens, UniProt P08913).
T1 sequence (P08913 1-465): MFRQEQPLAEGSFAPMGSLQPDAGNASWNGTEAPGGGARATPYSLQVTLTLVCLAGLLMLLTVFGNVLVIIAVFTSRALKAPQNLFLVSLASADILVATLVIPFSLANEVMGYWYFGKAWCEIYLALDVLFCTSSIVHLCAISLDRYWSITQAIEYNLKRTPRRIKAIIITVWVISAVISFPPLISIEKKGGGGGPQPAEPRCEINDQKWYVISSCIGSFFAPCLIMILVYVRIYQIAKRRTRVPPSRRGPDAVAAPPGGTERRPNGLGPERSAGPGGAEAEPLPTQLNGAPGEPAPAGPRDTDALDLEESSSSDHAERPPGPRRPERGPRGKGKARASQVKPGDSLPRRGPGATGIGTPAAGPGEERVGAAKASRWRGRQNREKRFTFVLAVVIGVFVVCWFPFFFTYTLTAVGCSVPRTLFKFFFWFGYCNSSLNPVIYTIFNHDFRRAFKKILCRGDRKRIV
Nature of the assay: ERK1/2‐phosphorylation in CHO‐α2A cells. Type of assay: cell-based. Also noted: expressed in transfected cells; host or cells: CHO-K1 with CRE-SPAP reporter.

For assay [2], the target named is T1, human α2A‐adrenoceptor.
For assay [3], the target named is T2, human α2C‐adrenoceptor (Homo sapiens, UniProt P18825).
T2 sequence (P18825 1-462): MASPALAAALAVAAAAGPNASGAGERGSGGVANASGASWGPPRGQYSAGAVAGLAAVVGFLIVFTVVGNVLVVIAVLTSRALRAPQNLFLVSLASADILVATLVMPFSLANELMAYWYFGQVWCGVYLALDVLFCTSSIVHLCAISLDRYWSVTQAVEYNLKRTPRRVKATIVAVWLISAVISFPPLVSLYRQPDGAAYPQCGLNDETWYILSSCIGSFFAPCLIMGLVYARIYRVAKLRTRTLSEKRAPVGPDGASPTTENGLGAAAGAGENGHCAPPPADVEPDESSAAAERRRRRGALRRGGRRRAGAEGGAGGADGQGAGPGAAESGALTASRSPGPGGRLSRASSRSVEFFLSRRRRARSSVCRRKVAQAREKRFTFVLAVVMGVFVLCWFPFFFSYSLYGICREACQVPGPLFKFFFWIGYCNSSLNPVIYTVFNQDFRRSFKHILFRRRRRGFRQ

Assay [4] concerns the target T2, human α2C‐adrenoceptor. The assay is described as follows: ERK1/2‐phosphorylation in CHO‐α2C cells. Also noted: expressed in transfected cells; host or cells: CHO-K1 with CRE-SPAP reporter. Type of assay: cell-based.
Assay [5] has as its target T2, human α2C‐adrenoceptor. The assay is described as follows: 3H‐rauwolscine whole cell binding in CHO‐α2C cells. The arrangement: expressed in transfected cells; host or cells: CHO-K1 with CRE-SPAP reporter.
Assay [6] has as its target T1, human α2A‐adrenoceptor. Nature of the assay: 3H‐rauwolscine whole cell binding in CHO‐α2A cells. Also noted: expressed in transfected cells; host or cells: CHO-K1 with CRE-SPAP reporter.
Where [7] appears, read: CHO‐α2C cells, CRE‐SPAP production in the absence of forskolin.

Where two headings read alike, the source gives them in different places. Bounds are passed on as bounds.

With `C=CCc1ccccc1OC(C)C1=NCCN1` (stereo not drawn) [Allyphenyline], the “% 10 μM PDBu, ERK1/2‐phosphorylation” value is 127.1 ± 13.0% on human α2A‐adrenoceptor [1] and 134.5 ± 17.9% at human α2C‐adrenoceptor [4]. Moreover, the “% inhibition, CRE‐SPAP (with forskolin)” value is reported as 50.6 ± 6.3% at human α2A‐adrenoceptor [2] and 66.8 ± 4.7% on human α2C‐adrenoceptor [3]. For the same molecule, the IC50 at human α2C‐adrenoceptor [3] is 63.1 nM. For the same molecule, the “Log EC50 (Gs), CRE‐SPAP (without forskolin)” value (“Log EC50 … (without forskolin)” below) on human α2C‐adrenoceptor [3] is “No response”. On human α2C‐adrenoceptor [4], this molecule gave an EC50 of 11.7 nM. For the same molecule, the Kd on human α2C‐adrenoceptor [5] is 214 nM; on human α2C‐adrenoceptor [5] (Log KD, CHO‐α2C), 214 nM.

On to `CCC1(c2cnc[nH]2)Cc2ccccc2C1` [Atipamezole], for which the “% 10 μM PDBu, ERK1/2‐phosphorylation” value at human α2A‐adrenoceptor [1] is reported as 42.4 ± 5.9%; on human α2C‐adrenoceptor [4], 63.7 ± 8.3%. Further, the EC50 on human α2A‐adrenoceptor [1] (CHO‐α2A, read-out: Log EC50, ERK1/2‐phosphorylation (converted)) is 28.8 nM; at human α2C‐adrenoceptor [4] (CHO‐α2C cells, given as negative log EC50, mean ± SEM, read-out: Log EC50, ERK1/2‐phosphorylation (converted)), 8.32 nM. The “Log EC50 … (without forskolin)” value at human α2A‐adrenoceptor [2] (CHO‐α2A (cell line 1), absence of forskolin) is “No response”; at human α2C‐adrenoceptor [3] (setting [7]), “No response”. The “Log IC50 (Gi), CRE‐SPAP (with forskolin)” value on human α2A‐adrenoceptor [2] (CHO‐α2A (cell line 1, 5830 fmol/mg protein), 3 μM forskolin) is listed as “No response”. The “% inhibition, CRE‐SPAP (with forskolin)” value on human α2C‐adrenoceptor [3] was determined as 15.8 ± 7.5%. The same molecule had a concentration for half-maximal inhibition (IC50) on human α2C‐adrenoceptor [3] of 200 nM. The “Log efficacy ratio (KD/IC50)” value at human α2C‐adrenoceptor [3] is listed as −1.78.

For `C=CCN1CCc2nc(N)sc2CC1` [BHT920], at human α2C‐adrenoceptor [3], the “% inhibition, CRE‐SPAP (with forskolin)” value worked out at 86.8 ± 6.0%; the “Log EC50 … (without forskolin)” value is given as “No response”; the “Log IC50 (Gi), CRE‐SPAP (with forskolin)” value was −7.41 ± 0.10; the “Log efficacy ratio (KD/IC50)” value is 1.42. For the same molecule, at human α2C‐adrenoceptor [4], the “% 10 μM PDBu, ERK1/2‐phosphorylation” value worked out at 144.8 ± 23.2% and the “Log EC50, ERK1/2‐phosphorylation” value is on record as −8.18 ± 0.12. Further, at human α2C‐adrenoceptor [5], the “Log KD” value is recorded as −5.99.

Consider `CCN1CCc2nc(N)oc2CC1` [BHT933], for which the “Log efficacy ratio (KD/IC50)” value at human α2C‐adrenoceptor [3] was 0.62. In addition, the “% inhibition, CRE‐SPAP (with forskolin)” value at human α2C‐adrenoceptor [3] (CHO‐α2C cells, % inhibition from the 3 μM forskolin control, mean ± SEM) was 86.0 ± 4.6%. Also, the “Log EC50 … (without forskolin)” value at human α2C‐adrenoceptor [3] (setting [7]) is “No response”. Moreover, the “Log IC50 (Gi), CRE‐SPAP (with forskolin)” value at human α2C‐adrenoceptor [3] (CHO‐α2C cells, inhibition of 3 μM forskolin‐stimulated CRE‐SPAP production, given as negative log IC50, mean ± SEM) is −5.94 ± 0.08. Besides, the “% 10 μM PDBu, ERK1/2‐phosphorylation” value at human α2C‐adrenoceptor [4] (CHO‐α2C cells, maximum response compared to 10 μM PDBu, mean ± SEM) was 150.0 ± 19.7%. Moreover, the “Log EC50, ERK1/2‐phosphorylation” value on human α2C‐adrenoceptor [4] (CHO‐α2C cells, given as negative log EC50, mean ± SEM) is on record as −6.63 ± 0.18. For the same molecule, the “Log KD” value on human α2C‐adrenoceptor [5] (CHO‐α2C cells, 3H‐rauwolscine whole cell binding, given as negative log KD, mean only (SEM in Table 4)) is recorded as −5.32.

Consider `CC(Cc1ccc(O)cc1)NCC(O)c1cc(O)cc(O)c1` (stereo not drawn) [Fenoterol], for which the “Log EC50 … (without forskolin)” value at human α2A‐adrenoceptor [2] and on human α2C‐adrenoceptor [3] was “No response” throughout. The “Log IC50 (Gi), CRE‐SPAP (with forskolin)” value on human α2A‐adrenoceptor [2] and at human α2C‐adrenoceptor [3] was “No response” each time. In addition, the Kd on human α2A‐adrenoceptor [6] (Log KD (apparent), CHO‐α2A) is 347000 ± 5010 nM; on human α2A‐adrenoceptor [6] (Log KD (binding)) it was 347000 nM; on human α2C‐adrenoceptor [5] (Log KD), 151000 nM; at human α2C‐adrenoceptor [5] (Log KD (apparent), CHO‐α2C), 151000 nM.

Regarding `COc1ccc(CC(C)NCC(O)c2ccc(O)c(NC=O)c2)cc1` (stereo not drawn) [Formoterol], the “Log EC50 … (without forskolin)” value on human α2A‐adrenoceptor [2] and at human α2C‐adrenoceptor [3] was “No response” each time. The “Log IC50 (Gi), CRE‐SPAP (with forskolin)” value at human α2A‐adrenoceptor [2] and at human α2C‐adrenoceptor [3] was “No response” throughout. Moreover, the IC50 at human α2A‐adrenoceptor [6] was greater than 100000 nM; on human α2A‐adrenoceptor [6] (read-out: IC50 in binding, CHO‐α2A) it was greater than 100000 nM; on human α2C‐adrenoceptor [5] it was greater than 100000 nM; at human α2C‐adrenoceptor [5] (read-out: IC50 in binding, CHO‐α2C), greater than 100000 nM.

For the molecule `CC(C)NCC(O)c1ccc(O)c(O)c1` (stereo not drawn) [Isoprenaline], on human α2C‐adrenoceptor [3], the “% inhibition, CRE‐SPAP (with forskolin)” value is on record as 95.0 ± 5.2%. The “% 10 μM PDBu, ERK1/2‐phosphorylation” value at human α2C‐adrenoceptor [4] was 130.7 ± 11.1%.

The values above are taken from PMC9471048, “The signaling and selectivity of α‐adrenoceptor agonists for the human α2A, α2B and α2C‐adrenoceptors and comparison with human α1 and β‐adrenoceptors” (Pharmacology Research & Perspectives, 2022).
